{"source": "patent US5290698A", "about": "“Streptoverticillium ferm P-10489 which produces antitumor agent BE-13793C” (Banyu Pharmaceutical Co., Ltd., priority 1989, dated 1994)", "key": {"[1]": {"system": "P388/S tumor cells", "experiment": "In vitro antitumor assay, growth inhibition of P388/S tumor cells (72 h, Coulter counter)", "type": "cell-based", "settings": "Mus musculus, 37° C., 5% CO2, 72 hours, read-out: concentration (IC50) causing 50% inhibition on P388/S tumor cell growth", "experimental": "(§1) In vitro activity tests were performed for evaluating the inhibitory activities of the antitumor substance BE-13793C on mouse tumor cells. In the in vitro antitumor assay using P388 tumor cells, the test substance was first dissolved in dimethyl sulfoxide and the obtained solution was serially diluted with a cell culture medium containing 20% of dimethyl sulfoxide (20% v/v DMSO-RPMI-1640 medium). Then, 2 μl of the dilution was added to 200 μl of a cell culture medium (10% v/v fetal calf serum-RPMI-1640 medium) containing 2×10^4 or 3×10^4 tumor cells. Next, each mixture was incubated at 37° C. under 5% CO2 for 72 hours. The viable cells were then counted with a Coulter counter. The result was compared with the control data. […] The concentration (IC50) of the antitumor substance BE-13793C causing 50% inhibition on P388/S tumor cell growth was 0.7 μM, while that on P388/V cell growth was 0.7 μM.\n(§2) The P388/S cells are commonly employed mouse leukemia cells while the P388/V cells are a strain of P388 leukemia cells which have acquired resistance to the anticancer agent vincristine."}, "[2]": {"system": "P388/V cells", "experiment": "In vitro antitumor assay, growth inhibition of vincristine-resistant P388/V cells", "type": "cell-based", "settings": "Mus musculus, 37° C., 5% CO2, 72 hours, read-out: concentration (IC50) causing 50% inhibition on P388/V cell growth", "experimental": "as §1, §2"}, "[3]": {"system": "P388/A cells", "experiment": "Growth inhibition of adriamycin-resistant P388/A cells", "type": "cell-based", "settings": "Mus musculus, read-out: 50% inhibitory concentration (IC50) on growth of P388/A cells", "experimental": "as §1\nFurthermore, the antitumor substance BE-13793C inhibited the growth of P388/A cells, which had acquired resistance to the anticancer agent adriamycin, and the 50% inhibitory concentration (IC50) thereof was 1.0 μM."}, "[4]": {"system": "Ehrlich ascites cancer", "experiment": "Effect on Ehrlich ascites cancer transplanted in mice (survival)", "type": "in vivo, mouse", "settings": "once a day 1st to 10th day; for MST (mean survival time): female ICR mice, control 13.1 day; for MST % T/C ((treated MST/control MST) × 100): ≥125 = marked antitumor effect", "description": "In this assay, 10^6 (lethal dose) tumor cells per mouse were intraperitoneally administered. Then the test substance was serially diluted and intraperitoneally administered.\n^1 Inoculum: 10^6 Ehrich ascites cancer cells, intraperitoneal.\n^2 Host: Female ICR mice.\n^3 Treatment schedule: BE13793C was intraperitoneally administered\nonce a day from the 1st to the 10th day.\n^4 MST: Mean survival time (in days).\n^5 % T/C: (Treated MST/control MST) × 100.\n^6 Criteria: When % T/C ≥ 125, the test compound was considere\nto produce a marked antitumor effect at the particular dose."}, "[5]": {"system": "female ICR mice", "experiment": "Acute toxicity on female ICR mice", "type": "in vivo, mouse", "settings": "100 mg/kg i.p. once, on the 5th day"}, "[6]": {"experiment": "Solubility", "type": "physicochemical"}, "[7]": {"experiment": "Acidity/neutrality/basicity", "type": "physicochemical"}}}
{"smiles": "O=C1NC(=O)c2c1c1c3cccc(O)c3[nH]c1c1[nH]c3c(O)cccc3c21", "note": "[BE-13793C]", "values": [{"measurement": "IC50", "setting": "[1]", "result": 700, "unit": "nM"}, {"measurement": "IC50", "setting": "[2]", "result": 700, "unit": "nM"}, {"measurement": "IC50", "setting": "[3]", "result": 1000, "unit": "nM"}, {"measurement": "MST (mean survival time)", "setting": "[4]; 8 mg/kg/injection i.p.", "result": 16.0, "unit": "days"}, {"measurement": "MST % T/C ((treated MST/control MST) × 100)", "setting": "[4]; 8 mg/kg/injection i.p.", "result": 122, "unit": "%"}, {"measurement": "MST (mean survival time)", "setting": "[4]; 20 mg/kg/injection i.p.", "result": 26.4, "unit": "days"}, {"measurement": "MST % T/C ((treated MST/control MST) × 100)", "setting": "[4]; 20 mg/kg/injection i.p.", "result": 202, "unit": "%"}, {"measurement": "MST (mean survival time)", "setting": "[4]; 50 mg/kg/injection i.p.", "result": 28.6, "unit": "days"}, {"measurement": "MST % T/C ((treated MST/control MST) × 100)", "setting": "[4]; 50 mg/kg/injection i.p.", "result": 218, "unit": "%"}, {"measurement": "death (acute toxicity)", "setting": "[5]", "result": "no death was found"}, {"measurement": "solubility in dimethyl sulfoxide", "setting": "[6]; dimethyl sulfoxide", "result": "highly soluble"}, {"measurement": "solubility in methanol", "setting": "[6]; methanol", "result": "soluble"}, {"measurement": "solubility in tetrahydrofuran", "setting": "[6]; tetrahydrofuran", "result": "highly soluble"}, {"measurement": "solubility in water", "setting": "[6]; water", "result": "hardly soluble"}, {"measurement": "Acidity/neutrality/basicity", "setting": "[7]", "result": "acidic"}]}
